pKi: −log10 of the molar value.

The target of the first test is T1, human recombinant α1a adrenoceptor (Homo sapiens, UniProt P35348).
T1 construct: expressed in transfected cells; host or cells: CHO cells (membranes)
T1 sequence (P35348 1-466): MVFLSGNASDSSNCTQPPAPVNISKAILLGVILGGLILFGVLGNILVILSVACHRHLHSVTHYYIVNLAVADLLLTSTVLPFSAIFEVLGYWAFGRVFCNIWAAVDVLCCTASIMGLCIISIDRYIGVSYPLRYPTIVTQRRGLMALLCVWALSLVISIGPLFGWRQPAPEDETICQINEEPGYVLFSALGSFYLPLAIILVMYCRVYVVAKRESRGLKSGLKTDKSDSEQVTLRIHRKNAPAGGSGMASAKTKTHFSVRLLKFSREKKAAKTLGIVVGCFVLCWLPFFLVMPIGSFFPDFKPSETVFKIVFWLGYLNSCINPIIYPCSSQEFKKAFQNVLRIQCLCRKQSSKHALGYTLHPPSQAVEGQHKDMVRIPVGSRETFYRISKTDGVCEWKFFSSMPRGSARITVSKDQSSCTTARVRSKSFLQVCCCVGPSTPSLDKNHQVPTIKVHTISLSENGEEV
In words: Radioligand binding ([3H]prazosin) on membranes of CHO cells expressing cloned α1a adrenoceptor. Conditions: human cloned receptor, CHO cell membranes, 0.2 nM [3H]prazosin; read-out: Affinity (Ki) α1a. On the procedure: The determination of affinity for cloned subtypes of human α1 adrenergic receptors was performed in membranes from CHO cells (chinese hamster ovary cells) transfected by electroporation with DNA expressing the genes encoding each α1-adrenoceptor subtype, namely α1a, α1b and α1d.. Cloning and stable expression of the human α1-adrenoceptor gene were performed as previously described (Testa et al., Pharmacol. Comm. 6, 79-86 (1995)). CHO cell membranes were incubated in […] Tris pH 7.4 with 0.2 nM [^3H]prazosin, in a final volume of 1.02 ml for 30 minutes at 25°C, in the absence or presence of competing drugs (1 pM-10 µM). Non-specific binding was determined in the presence of 10 µM phentolamine. Incubation was stopped by addition of ice-cold Tris buffer and rapid filtration through 0.2% polyethyleneimine pretreated Schleicher & Schuell GF52 filters. […] The HeLa cells were grown as monolayers in Dulbecco's modified Eagle's medium (DMEM), supplemented with 10% foetal calf serum and gentamicin (100 µg/ml), 5% CO2, at 37°C. The cells were detached from the growth flask at 95% confluence by a cell scraper and were lysed in ice-cold 5 mM Tris and 5-mM EDTA buffer (pH 7.4). The homogenates were centrifuged at 40000 x g x 20 minutes and the membranes were re-suspended in a small volume of ice-cold 5 mM Tris and 5-mM EDTA buffer (pH 7.4) and immediately frozen and stored at -70°C until use. On the experiment day, the cell membranes were re-suspended in a buffer containing 50 mM Tris (pH 7.4), 2.5 mM MgCl2, 10 µM pargyline (Fargin et al., Nature 335, 358-360 (1988)). […] The incubation was stopped by addition of ice-cold Tris buffer and rapid filtration through 0.2%-polyethyleneimine-pretreated Schleicher & Schuell filters. The inhibition of specific binding of the radioligands by the drugs was analysed to estimate the IC50 value by using the non-linear curve-fitting programme Allfit (De Lean et al., Am. J. Physiol. 235, E97-E102 (1978)). The IC50 value was converted to an affinity constant (Ki) by the equation of Cheng & Prusoff (Biochem. Pharmacol. 22, 3099-3108 (1973)). Data were expressed as mean of Ki.
In general, pKi refers to −log10 of the Ki, conventionally taken in molar units. Consider `Cc1ccc(F)c(N2CCN(CCN3C(=O)CC4(CCCC4)CC3=O)CC2)c1` [Example 4, 8-{2-[4-(2-Fluoro-5-methylphenyl)-1-piperazinyl]-ethyl}-8-azaspiro[4.5]decane-7,9-dione], for which the pKi was less than 6.00. As to `O=C1CC2(CCCC2)C(=O)N1CCN1CCN(c2cc(Cl)ccc2Cl)CC1` [Example 14, 2-{2-[4-(2,5-Dichlorophenyl)-1-piperazinyl]-ethyl}-2-azaspiro[4.4]nonane-1,3-dione], the pKi was 7.17. On to `O=C1CC2(CCCCC2)CC(=O)N1CCN1CCN(c2cc(Cl)ccc2Cl)CC1` [Example 11, 3-{2-[4-(2,5-Dichlorophenyl)-1-piperazinyl]-ethyl}-3-azaspiro[5.5]undecane-2,4-dione], for which the pKi is 6.48. On to `O=C1CC2(CCCC2)CC(=O)N1CCN1CCN(c2cc(I)ccc2Cl)CC1` [Example 10, 8-{2-[4-(2-Chloro-5-iodophenyl)-1-piperazinyl]-ethyl}-8-azaspiro[4.5]decane-7,9-dione], for which the pKi is 6.32. Consider `O=C1CC2(CCCC2)CC(=O)N1CCN1CCN(c2cc(F)ccc2Cl)CC1` [Example 9, 8-{2-[4-(2-Chloro-5-fluorophenyl)-1-piperazinyl]-ethyl}-8-azaspiro[4.5]decane-7,9-dione], for which the pKi is 6.97. As for `N#Cc1ccc(Cl)cc1N1CCN(CCN2C(=O)CC3(CCCC3)CC2=O)CC1` [Example 8, 8-{2-[4-(5-Chloro-2-cyanophenyl)-1-piperazinyl]-ethyl}-8-azaspiro[4.5]decane-7,9-dione], the pKi was 6.30. `O=C1CC2(CCC2)CC(=O)N1CCN1CCN(c2cc(Cl)ccc2Cl)CC1` [Example 15, 7-{2-[4-(2,5-Dichlorophenyl)-1-piperazinyl]-ethyl}-7-azaspiro[3.5]nonane-6,8-dione]: the pKi was 6.92. `O=C1CC2(CCCC2)CC(=O)N1CCN1CCN(c2cc(Br)ccc2Br)CC1` [Example 7, 8-{2-[4-(2,5-Dibromophenyl)-1-piperazinyl]-ethyl}-8-azaspiro[4.5]decane-7,9-dione]: the pKi is 6.94. In the case of `O=C1CC2(CCCC2)CC(=O)N1CCN1CCN(c2cc(C(F)(F)F)ccc2F)CC1` [Example 6, 8-{2-[4-(2-Fluoro-5-trifluoromethylphenyl)-1-piperazinyl]-ethyl}-8-azaspiro[4.5]decane-7,9-dione], the pKi was less than 6.00. As for `O=C1CC2(CCCC2)CC(=O)N1CCN1CCC(c2cc(Cl)ccc2Cl)CC1` [Example 17, 8-{2-[4-(2,5-Dichlorophenyl)-1-piperidinyl]-ethyl}-8-azaspiro[4.5]decane-7,9-dione], the pKi was 6.93.

For `Cc1ccc(C)c(N2CCN(CCN3C(=O)CC4(CCCC4)CC3=O)CC2)c1` [Example 5, 8-{2-[4-(2,5-Dimethylphenyl)-1-piperazinyl]-ethyl}-8-azaspiro[4.5]decane-7,9-dione], the pKi was 6.92. `CN(CCN1C(=O)CC2(CCCC2)CC1=O)CCN(C)c1cc(Cl)ccc1Cl` [Example 18, N-(2,5-Dichlorophenyl)-N'-{2-(7,9-dioxo-8-azaspiro[4.5]decane-8-yl)-ethyl}-N,N'-dimethyl-1,2-diaminoethane]: the pKi was 6.10. On to `O=C1CCCC(=O)N1CCN1CCN(c2cc(Cl)ccc2Cl)CC1` [Example 2, 1-{2-[4-(2,5-Dichlorophenyl)-1-piperazinyl]-ethyl}-piperidinyl-2,6-dione], for which the pKi was 7.11. Consider `CCC1(C)CC(=O)N(CCN2CCN(c3cc(Cl)ccc3Cl)CC2)C(=O)C1` [Example 13, 1-{2-[4-(2,5-Dichlorophenyl)-1-piperazinyl]-ethyl}-4-ethyl-4-methylpiperidinyl-2,6-dione], for which the pKi was 7.22.

Regarding `CC(CN1CCN(c2cc(Cl)ccc2Cl)CC1)N1C(=O)CC2(CCCC2)CC1=O` (stereo not drawn) [Example 16, 8-{2-[4-(2,5-Dichlorophenyl)-1-piperazinyl]-1-methylethyl}-8-azaspiro[4.5]decane-7,9-dione], the pKi is 6.73.

Take `O=C1CC2(CCCC2)CCN1CCN1CCN(c2cc(F)c(F)cc2F)CC1` [Example 24, 8-{2-[4-(2,4,5-Trifluorophenyl)-1-piperazinyl]-ethyl}-8-azaspiro[4.5]decane-7-one]: the pKi was 6.15.

Still in this test, the particulars now being: read-out: Affinity (Ki) α1a.
Regarding `O=C1CC2(C=CN1CCN1CCN(c3cc(Cl)ccc3Cl)CC1)CCCC2` [Example 20, 8-{2-[4-(2,5-Dichlorophenyl)-1-piperazinyl]-ethyl}-8-azaspiro[4.5]dec-9,10-en-7-one], the pKi is 7.57.

A further test has as its target T2, Rat aorta α1D (Rattus norvegicus, UniProt P23944).
T2 construct: from tissue; host or cells: rat thoracic aorta, helicoidal strips
T2 sequence (P23944 1-561): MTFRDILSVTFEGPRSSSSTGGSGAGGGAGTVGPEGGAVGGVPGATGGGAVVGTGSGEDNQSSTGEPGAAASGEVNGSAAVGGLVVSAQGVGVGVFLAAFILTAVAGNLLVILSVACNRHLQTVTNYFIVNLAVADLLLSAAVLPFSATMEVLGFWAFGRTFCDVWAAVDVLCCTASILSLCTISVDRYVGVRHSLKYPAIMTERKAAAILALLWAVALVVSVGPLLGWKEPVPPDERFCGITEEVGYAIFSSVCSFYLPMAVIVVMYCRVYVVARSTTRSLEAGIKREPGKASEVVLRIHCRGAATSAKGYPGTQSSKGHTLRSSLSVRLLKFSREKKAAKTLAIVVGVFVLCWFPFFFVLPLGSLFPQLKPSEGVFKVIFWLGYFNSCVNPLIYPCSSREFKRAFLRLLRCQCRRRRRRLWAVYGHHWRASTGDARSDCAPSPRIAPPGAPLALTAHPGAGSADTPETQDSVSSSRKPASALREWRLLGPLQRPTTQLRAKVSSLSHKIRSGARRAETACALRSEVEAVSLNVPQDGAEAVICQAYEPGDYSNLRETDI
In words: Functional antagonism of noradrenaline-induced contraction, rat aorta strips. The format is cell-based, Sprague Dawley rats. Conditions: noradrenaline as agonist, 30 minutes incubation, Schild plot; read-out: Functional affinity pKB, Rat aorta α1D (converted). On the procedure: In vitro assessment of functional antagonism for α1-adrenoceptor subtypes
Thoracic aorta was obtained from Sprague Dawley rats, cut in helicoidal strips and placed in Krebs solution containing desmethylimipramine (0.1 µM), corticosterone (1 µM), propranol (1 µM) and yohimbine (0.1 µM). The strips were mounted for isotonic tension recording in an organ bath containing the above Krebs buffer enriched and aerated constantly with 95% O2 and 5% CO2, maintained at 37°C and loaded with 1.5 g. After an equilibration period, the strips were primed twice with 10 µM noradrenaline, then concentration/response-to-the-agonist curves were constructed before (basal) and after 30 minutes incubation with single antagonist concentrations (response). The Schild-plot parameters were evaluated by linear-regression analysis according to Tallarida and Murray (Manual of Pharmacologic Calculations with Computer Programs, 53-56, Springer-Verlag).
With `O=C1CC2(CCCC2)CC(=O)N1CCN1CCN(c2cc(Cl)ccc2Cl)CC1` [Example 1, 8-{2-[4-(2,5-Dichlorophenyl)-1-piperazinyl]-ethyl}-8-azaspiro[4.5]decane-7,9-dione], the Kb is 1.02 nM.

The record behind these values is patent EP1200406B1, “CYCLIC AMIDES AND IMIDES HAVING SELECTIVE ANTAGONIST ACTIVITY AT ALPHA-1D ADRENERGIC RECEPTOR” (RECORDATI INDUSTRIA CHIMICA E FARMACEUTICA S.p.a., priority 1999, dated 2001).
